The subject of one assay is Chlorella sp. ATCC 7516. In words: Algal efficacy testing of dry paint film (modified ASTM 5589, 6-well plates). In kind it is cell-based. The following applies: 3 weeks; for Total conc: total biocide concentration in paint reaching pass level (at least 75% inhibition). On the procedure: (§1) Slurries containing 33% antimicrobial active ingredient (flurochloridone) were post added to a white, acrylic/silicone based outdoor paint free of biocides to give a total active ingredient concentration of 10000 and 1000 ppm respectively. ROCIMA™ 250 (40% IPBC) was post added to a white, acrylic/silicone based outdoor paint free of biocides to give a total active ingredient concentration of 10000 and 1000 ppm respectively. These paints were then diluted with an antimicrobial free acrylic/silicone based paint and mixed to prepare targeted concentrations of antimicrobial compounds for the testing. The total biocides concentrations tested were 125, 250, 500, 1000, 2000 and 5000 ppm. After biocides addition or dilution, the paints were mixed 90 seconds with the horse power shaker (AXEL 75M3372/ Agitateur SO-10MI) until uniformity was achieved. Paints containing different antimicrobial compounds at the same levels were mixed together in order to obtain the desired ratio of antimicrobial compounds. After one day, the paints were applied to Schleicher & Schuell filter paper at 280 μm wet film thickness and dried for 3 days at room temperature avoiding direct exposure to sunlight. Square discs (1.6 cm×1.6 cm) were cut out from each panel and were used as the substrate for algal efficacy tests. This sample size allowed for an agar border when the sample disc was placed into the well of the test plate.
(§2) Algal efficacy was tested according to modified ASTM 5589 which is a standard accelerated test method for determining resistance of various coatings (including paints) to algal defacement. To accommodate for high-throughput screening, this method was scaled down from petri dishes to 6-well plates. Bold Modified Basal Freshwater Nutrient Solution was used as growth medium. A single coated filter paper coupon was placed with a pair of sterile forceps at the center of the agar plug (on top) with the painted surface facing upwards. Algal inoculums were prepared by mixing equal concentrations (1×10^6 cfu/ml) and equal volumes of exponentially growing algae cultures.
(§3) Each well that contains a tested coupon was inoculated with 1750 μl of algal suspensions (1×10^6 cfu/ml) making sure that the whole surface (paint film as well as the agar surrounding it) was evenly covered. The plates were incubated at room temp (21° C.-25° C.) with cyclic exposure to light and dark phases, for a period of three weeks. The total area inhibited was evaluated at the end of each week according to percent area covered in 5% increments.
(§4) At the end of the three week incubation period, the samples were scored for percent inhibition regarding color intensity compared to the blank sample.
(§5) The SI is calculated based on F. C. Kull et.
(§6) The minimal targeted inhibition was set at 75%, meaning a coupon with at least 75% algal growth inhibition was considered as a pass.

In assay [1] the test system is Stichococcus bacillaris SAG 379-1a. Described as above. In kind it is cell-based. The following applies: 3 weeks; for Total conc: total biocide concentration in paint reaching pass level (at least 75% inhibition). The procedure:
as §1, §2, §3, §4, §5, §6

Consider 2 compounds from patent US9307768B2, “Synergistic combination of a flurochloridone compound and IPBC for dry film protection” (priority 2013, dated 2016).

Structures are written as SMILES.

For orientation: inhibition means the drop in the measured response relative to a control, in per cent. Read a high inhibition as a response far below the control. Regarding `O=C1C(Cl)C(CCl)CN1c1cccc(C(F)(F)F)c1` (centres unmarked) [Flurochloridone, 3-chloro-4-(chloromethyl)-1-[3-(trifluoromethyl)phenyl]-2-pyrrolidinone], the inhibition at 5000 ppm in the assay on Chlorella sp. ATCC 7516 (504 h, total conc 5000 ppm) amounted to 85%; in assay [1] (Stichococcus bacillaris, 504 h, total conc 5000 ppm) it was 90%. Besides, the Total conc (in the assay on Chlorella sp. ATCC 7516; in assay [1]) was 5000 ppm each time.

In general, % inhibition refers to the relative decrease from the control value, in per cent. A lower % inhibition goes with a weak effect. For `CCCCNC(=O)OCC#CI` [IPBC, 3-Iodo-2-propynyl-butylcarbamate], the “% inhibition” value was 85% in the assay on Chlorella sp. ATCC 7516 (total conc 2000 ppm) and 90% in assay [1] (total conc 2000 ppm). Also, the Total conc (with Chlorella sp. ATCC 7516; in assay [1]) was 2000 ppm throughout.
